Source: patent US20220142958A1, “MEDICINAL COMPOSITION HAVING EXCELLENT STABILITY” (EA Pharma Co., Ltd., priority 2019, published 2022)

Assays:
[1] = tested on: bilaterally nephrectomized rats; test: Survival of bilaterally nephrectomized rats after single doses; format: in vivo, rat; conditions: 48 hours after the administration, all administered groups (0.3, 3, 30 mg/kg)
Description: After quarantine and acclimatization periods of 6 days, fifty-one rats (Crl: CD (SD), male) aged 7 weeks were fed a 100% sucrose diet ad libitum from four days before the surgery. On the day of the surgery, skin incisions were made on the back at the sites of the right and left kidneys under isoflurane anesthesia and the renal capsules were removed to ligate the renal arteries and veins and the ureters using threads before removing the right and left kidneys. A penicillin solution was given upon suturing, and 5 mL of physiological saline was intraperitoneally administered before returning the rats into the breeding cages.
On a day after the bilaterally nephrectomy, the given doses were calculated based on the weight of the selected animals on that day. Group 1 was given a medium (physiological saline), Groups 2, 3 and 4 were given the Compound A1 solution (0.3, 3 and 30 mg/mL, respectively), and Groups 5, 6, 7 and 8 (5 rats per group) were given the comparative compound (0.3, 1, 3 and 10 mg/mL, respectively), each given a single dose of 1 ml/kg from the tail vein. Prior to the administration (0 hours), and 24 and 48 hours after the administration, approximately 300 μL of blood was collected without anesthesia from the tail vein using capillary tubes for obtaining the serum. The blood for obtaining the serum was left to stand at room temperature, and centrifuged in a high speed refrigerated microcentrifuge (10,000 rpm, 5 min, 4° C.) within a period of 30 minutes to 2 hours after the blood collection to collect the serum.

[2] = Example 4B: residual ratio at 50, 60, 70° C. and Arrhenius estimation at 25° C.; format: physicochemical; conditions: for Kobs: estimation at 25° C. (Arrhenius plot); for Residual ratio (%) estimation: estimation at 25° C.
Description: According to Table 13, Compound A1 was dissolved at 2 concentrations in each of the buffer solutions having a pH at each of both ends of Example 4A. Each of these solutions was dispensed into a glass vial and stored at each of 50° C., 60° C., and 70° C. After the storage, a residual ratio was calculated according to a test method described below.
Test method: In the solution after the storage, the residual ratio was analyzed according to a normal method using a liquid chromatography apparatus Prominence (manufactured by Shimadzu Corporation) and an ultraviolet absorptiometer (measurement wavelength: 254 nm, Prominence (manufactured by Shimadzu Corporation)). At this time, SUMIPAX ODS (3 mm×150 mm, […], manufactured by SCAS) was used as a column.
The calculation for obtaining the residual ratio (%) of Compound A1 during each storage period is as follows.
Residual ratio (%) of Compound A1 during each storage period=peak area of Compound A1 in sample solution/peak area of Compound A1 in standard solution×100
Here, “Compound A1 in standard solution” refers to a solution obtained by dissolving Compound A1 in each of the buffer solutions shown in Table 13 so that a concentration was 0.1 mg/mL, and then storing the solution at 5° C. It was clear from the results of Example 1 that the solution of Compound A1 was stable when being stored at 5° C., and thus, the solution was used as the standard solution.
The reaction rate constant at each of the storing temperatures was calculated using the obtained residual ratio. The Arrhenius plot was performed to calculate the reaction rate constant (h^−1) at an arbitrary temperature. As an example, the residual ratio estimation at 25° C. is shown in Table 15 and described in FIG. 1.

serum iPTH = test: PK and PK/PD analysis of P1 (three-compartment model, indirect response model incorporating rebound); format: in vivo, human; conditions: ±standard error
Description: A PK/PD analysis was conducted to estimate the clinically effective dose based on the results from P1. The dose of 2.5 mg seemed to be excessive and thus was eliminated from the analysis. PK (mean plasma concentration) and PD (mean iPTH level normalized by the levels of the placebo group and the 0-hour level) data of the doses of 0.01 mg, 0.1 mg and 1 mg were used. An indirect response model incorporating rebound was used for the PK/PD analysis.
Based on the results of PK of the three given doses (0.01 mg, 0.1 mg, and 1 mg) in P1, the three given doses were simultaneously analyzed using a three-compartment model to calculate the PK parameters (FIG. 2-5 and Table 16-2).
Using the calculated PK parameters as an input function, PK/PD analysis was performed using an indirect response model incorporating rebound (FIG. 2-6) to calculate the EC50 value in healthy adults (FIG. 2-7 and Table 16-3).

Cc1c(Cl)cc(S(=O)(=O)[O-])cc1NC(=O)NC[C@H](N)C(=O)O.[Na+] [Compound A1, sodium 3-{[(2S)-2-amino-2-carboxyethyl]carbamoylamino}-5-chloro-4-methylbenzenesulfonate]
number of rats surviving (of five per group) [1]: five | Kobs ([2]; pH 1.1, 0.1 mg/mL): 3.01e-06 h⁻¹ | Kobs ([2]; pH 1.1, 10 mg/mL): 5.55e-06 h⁻¹ | Kobs ([2]; pH 7.0, 0.1 mg/mL): 3.1e-06 h⁻¹ | Kobs ([2]; pH 7.0, 10 mg/mL): 5.73e-06 h⁻¹ | Residual ratio (%) estimation ([2]; pH 1.1, 0.1 mg/mL, 3M): 99.4% | Residual ratio (%) estimation ([2]; pH 1.1, 0.1 mg/mL, 6M): 98.7% | Residual ratio (%) estimation ([2]; pH 1.1, 0.1 mg/mL, 12M): 97.4% | Residual ratio (%) estimation ([2]; pH 1.1, 10 mg/mL, 3M): 98.8% | Residual ratio (%) estimation ([2]; pH 1.1, 10 mg/mL, 6M): 97.6% | Residual ratio (%) estimation ([2]; pH 1.1, 10 mg/mL, 12M): 95.3% | Residual ratio (%) estimation ([2]; pH 7.0, 0.1 mg/mL, 3M): 99.3% | Residual ratio (%) estimation ([2]; pH 7.0, 0.1 mg/mL, 6M): 98.7% | Residual ratio (%) estimation ([2]; pH 7.0, 0.1 mg/mL, 12M): 97.4% | Residual ratio (%) estimation ([2]; pH 7.0, 10 mg/mL, 3M): 98.8% | Residual ratio (%) estimation ([2]; pH 7.0, 10 mg/mL, 6M): 97.6% | Residual ratio (%) estimation ([2]; pH 7.0, 10 mg/mL, 12M): 95.2% | storage stability ([2]; formulation with pH of 1.1 and 7.0, 25° C., over 12 months (estimation)): excellent storage stability | Residual ratio (%) ([2]; pH 1.1, 0.1 mg/mL, 50° C., 23 hours): 98.9% | Residual ratio (%) ([2]; pH 1.1, 0.1 mg/mL, 50° C., 141 hours): 96.9% | Residual ratio (%) ([2]; pH 1.1, 0.1 mg/mL, 50° C., 570 hours): 92.3% | Residual ratio (%) ([2]; pH 1.1, 0.1 mg/mL, 60° C., 23 hours): 97.8% | Residual ratio (%) ([2]; pH 1.1, 0.1 mg/mL, 60° C., 141 hours): 92.0% | Residual ratio (%) ([2]; pH 1.1, 0.1 mg/mL, 60° C., 570 hours): 76.7% | Residual ratio (%) ([2]; pH 1.1, 0.1 mg/mL, 70° C., 23 hours): 94.5% | Residual ratio (%) ([2]; pH 1.1, 0.1 mg/mL, 70° C., 141 hours): 76.8% | Residual ratio (%) ([2]; pH 1.1, 0.1 mg/mL, 70° C., 570 hours): 35.5% | Residual ratio (%) ([2]; pH 1.1, 10 mg/mL, 50° C., 23 hours): 96.2% | Residual ratio (%) ([2]; pH 1.1, 10 mg/mL, 50° C., 141 hours): 96.4% | Residual ratio (%) ([2]; pH 1.1, 10 mg/mL, 50° C., 570 hours): 89.5% | Residual ratio (%) ([2]; pH 1.1, 10 mg/mL, 60° C., 23 hours): 96.4% | Residual ratio (%) ([2]; pH 1.1, 10 mg/mL, 60° C., 141 hours): 95.6% | Residual ratio (%) ([2]; pH 1.1, 10 mg/mL, 60° C., 570 hours): 73.4% | Residual ratio (%) ([2]; pH 1.1, 10 mg/mL, 70° C., 23 hours): 92.5% | Residual ratio (%) ([2]; pH 1.1, 10 mg/mL, 70° C., 141 hours): 84.2% | Residual ratio (%) ([2]; pH 1.1, 10 mg/mL, 70° C., 570 hours): 36.5% | Residual ratio (%) ([2]; pH 7.0, 0.1 mg/mL, 50° C., 23 hours): 99.6% | Residual ratio (%) ([2]; pH 7.0, 0.1 mg/mL, 50° C., 141 hours): 97.7% | Residual ratio (%) ([2]; pH 7.0, 0.1 mg/mL, 50° C., 570 hours): 90.9% | Residual ratio (%) ([2]; pH 7.0, 0.1 mg/mL, 60° C., 23 hours): 98.2% | Residual ratio (%) ([2]; pH 7.0, 0.1 mg/mL, 60° C., 141 hours): 89.2% | Residual ratio (%) ([2]; pH 7.0, 0.1 mg/mL, 60° C., 570 hours): 63.9% | Residual ratio (%) ([2]; pH 7.0, 0.1 mg/mL, 70° C., 23 hours): 93.8% | Residual ratio (%) ([2]; pH 7.0, 0.1 mg/mL, 70° C., 141 hours): 68.0% | Residual ratio (%) ([2]; pH 7.0, 0.1 mg/mL, 70° C., 570 hours): 21.1% | Residual ratio (%) ([2]; pH 7.0, 10 mg/mL, 50° C., 23 hours): 100.0% | Residual ratio (%) ([2]; pH 7.0, 10 mg/mL, 50° C., 141 hours): 98.0% | Residual ratio (%) ([2]; pH 7.0, 10 mg/mL, 50° C., 570 hours): 89.0% | Residual ratio (%) ([2]; pH 7.0, 10 mg/mL, 60° C., 23 hours): 97.2% | Residual ratio (%) ([2]; pH 7.0, 10 mg/mL, 60° C., 141 hours): 86.3% | Residual ratio (%) ([2]; pH 7.0, 10 mg/mL, 60° C., 570 hours): 61.0% | Residual ratio (%) ([2]; pH 7.0, 10 mg/mL, 70° C., 23 hours): 91.7% | Residual ratio (%) ([2]; pH 7.0, 10 mg/mL, 70° C., 141 hours): 64.4% | Residual ratio (%) ([2]; pH 7.0, 10 mg/mL, 70° C., 570 hours): 22.2% | Emax (serum iPTH; healthy adults, indirect response model incorporating rebound): 0.920 ± 0.027 ratio | K12 (serum iPTH; three-compartment model): 0.658 ± 0.136 h⁻¹ | K13 (serum iPTH; three-compartment model): 4.42 ± 1.80 h⁻¹ | K21 (serum iPTH; three-compartment model): 0.819 ± 0.049 h⁻¹ | K31 (serum iPTH; three-compartment model): 6.89 ± 1.33 h⁻¹ | Ke (serum iPTH; three-compartment model): 1.28 ± 0.15 h⁻¹
